The structures appear in SMILES notation. Counter-ions that a name gives are not always drawn.

The target in this assay is T1, human HSL (Homo sapiens, UniProt Q05469).
T1 construct: generate a full length human HSL ORF with a 3′-His6 tag; His6 (C); made in house; host or cells: High 5 insect cells (baculovirus, pFast-BAC)
T1 sequence (Q05469 1-1076): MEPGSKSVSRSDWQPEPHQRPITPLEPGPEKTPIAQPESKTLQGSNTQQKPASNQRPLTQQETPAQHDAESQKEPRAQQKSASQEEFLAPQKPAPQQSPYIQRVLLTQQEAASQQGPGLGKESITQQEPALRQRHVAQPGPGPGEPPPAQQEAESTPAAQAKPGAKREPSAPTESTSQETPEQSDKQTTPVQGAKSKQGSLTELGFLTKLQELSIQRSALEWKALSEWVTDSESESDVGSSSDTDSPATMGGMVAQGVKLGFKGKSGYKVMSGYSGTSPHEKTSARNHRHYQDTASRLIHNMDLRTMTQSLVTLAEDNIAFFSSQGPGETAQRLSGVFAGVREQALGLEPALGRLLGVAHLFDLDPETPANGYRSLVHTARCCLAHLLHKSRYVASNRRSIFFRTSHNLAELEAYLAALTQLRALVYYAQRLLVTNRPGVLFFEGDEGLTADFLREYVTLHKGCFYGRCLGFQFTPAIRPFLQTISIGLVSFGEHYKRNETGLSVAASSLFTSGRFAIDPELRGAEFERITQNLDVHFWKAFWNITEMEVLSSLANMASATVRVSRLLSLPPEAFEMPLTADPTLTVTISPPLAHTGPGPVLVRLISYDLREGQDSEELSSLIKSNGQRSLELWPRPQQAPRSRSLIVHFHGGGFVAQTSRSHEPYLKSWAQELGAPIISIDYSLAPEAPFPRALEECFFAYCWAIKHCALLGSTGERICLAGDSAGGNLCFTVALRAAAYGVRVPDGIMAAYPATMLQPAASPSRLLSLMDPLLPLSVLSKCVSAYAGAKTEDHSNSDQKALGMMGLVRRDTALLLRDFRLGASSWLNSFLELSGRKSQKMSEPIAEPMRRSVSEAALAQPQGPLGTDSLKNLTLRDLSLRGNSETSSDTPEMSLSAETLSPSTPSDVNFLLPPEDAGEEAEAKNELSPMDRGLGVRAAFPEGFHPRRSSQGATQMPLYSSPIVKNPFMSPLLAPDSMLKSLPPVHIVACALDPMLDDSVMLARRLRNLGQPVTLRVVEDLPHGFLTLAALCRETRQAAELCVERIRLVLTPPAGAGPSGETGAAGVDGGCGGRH
The assay is described as follows: Human Hormone-Sensitive Lipase (HSL) enzyme inhibition assay (colorimetric, DMPT substrate). Type of assay: biochemical. As to conditions: read-out: HSL hum IC50. As to the method:
Production of Human Full Length Hormone Sensitive Lipase-His^6
1) Cloning: cDNA was prepared from commercial human brain polyA+ RNA and used as a template in overlapping PCR to generate a full length human HSL ORF with a 3′-His6 tag. This full length insert was cloned into the pFast-BAC vector and the DNA-sequence of several single clones was verified. DNA from a correct full length clone with the 3′His6 tag was used to transform the E. coli strain DH10BAC. Resulting bacmid DNA was used to generate a titered baculovirus stock for protein generation. The sequence of the encoded HSL conforms to Swissprot entry Q05469, with the additional C-terminal His6-tag.
2) Protein purification: Culture: 5.5 L, High 5 cells expressing human full length HSL-His^6, 48 hr., containing 25 μM E-64. Cell count: […], 90% viable.
Cells were thawed. On ice, cells were suspended in Base Buffer containing 10% glycerol, 25 mM Tris-Cl, 300 mM NaCl, 10 mM imidazole, 10 mM 2-mercaptoethanol, 2 μg pepstatin/ml, 2 μg leupeptin/ml, 2 μg antipain/ml, pH 8.0 at 4° C. in a final volume of 475 ml with 3.75×10^7 cells/ml. […] was done at 3×30 sec., Lubrol PX was added to 0.2% final concentration followed by stirring for 15 min. at 4° C. and centrifugation at 25 k×g, 60 min., 4° C. Soluble proteins were mixed with 60 ml of pre-washed and equilibrated Ni-NTA Agarose (Qiagen 30210) followed by tumbling end-over-end, 45 min., 4° C., centrifugation 1000 rpm 5 min and letting resin settle 5 min. Supernatant was removed, the resin washed in the centrifuge vessel using 5 volumes of Base Buffer containing 0.2% Lubrol PX. Centrifugation was done again, then the supernatant discarded. The resin was poured onto a 0.8 μm membrane in a disposable filter unit (Nalge 450-0080), and washed with 5 volumes of Base Buffer containing 0.2% Lubrol PX. It was then washed with 30 volumes of Base Buffer containing 60 mM imidazole pH 7.5 at 4° C. The protein was eluted with 5 volumes of 25 mM Tris-Cl, 300 mM NaCl, 200 mM imidazole, 10 mM 2-mercaptoethanol, pH 7.5 at 4° C. by tumbling resin with buffer end-over-end, 30 min., 4° C. The resin was captured on a 0.2 μm membrane disposable filter unit (Millipore SCGP U02 RE) and the elute collected in the reservoir. The elute was concentrated using a 30 k MWCO centrifugal filter device (Sartorius Vivascience Vivacell 100, VC1022), to 20 ml. It was then dialyzed overnight at 4° C., two times against 2 L of 10% glycerol, 25 mM Tris-Cl, 300 mM NaCl, 0.2 mM EDTA, 0.2 mM DTT, pH 7.5 at 4° C. The protein was filtered using a 0.22 μm disposable filter unit (Millipore SCGP00525). The protein concentration was calculated from absorbance at 280 nm, using 280=0.67 cm-1 mg-1. Yield was 235 mg, total. The protein was stored at −80° C. Human Hormone-Sensitive Lipase (HSL) enzyme inhibition assay:
HSL enzyme activity was measured by a colorimetric assay using 2,3-dimercapto-1-propanol tributyrate (Aldrich, St. Louis, Mo.) as a substrate. Typically, 1.5 mM 2,3-dimercapto-1-propanol tributyrate (DMPT) in 100 mM MOPS, pH 7.2, 0.2 mg/ml fatty acid-free BSA was prepared by sonication at 4° C. to homogenous suspension. Test compounds (2 mM stock in DMSO) were diluted 3 fold in series in DMSO. Compound solutions were diluted 24 fold in 1.5 mM DMPT containing solution and 18 ul per well was added to 384-well microplates (Corning Costar). Twelve microliters per well of human HSL (15 ug/ml) was added and the reaction mixture was incubated at 37° C. for 20 minutes. Six microliters of 12 mM dithio-bis-(2-nitrobenzoic acid) (DTNB) in DMSO plus 1.2% SDS and 0.6% Triton X-100 were added and the mixture was incubated at room temperature for 15 minutes. Product production was monitored by reading absorbance at 405 nm on an Envision Reader (PerkinElmer Life and Analytical Sciences, Shelton, Conn.).
In general, IC50 refers to the midpoint of a concentration-inhibition curve. With `CCc1ccc(NC(=O)C2(N)CCN(S(=O)(=O)c3ccccc3F)CC2)cc1` [Example 134, 4-Amino-1-(2-fluoro-benzenesulfonyl)-piperidine-4-carboxylic acid (4-ethyl-phenyl)-amide], the IC50 amounted to 0.06 µM.

On to `CC(C)Oc1ccc(NC(=O)C2(N)CCN(S(=O)(=O)c3ccccc3Cl)CC2)cc1` [Example 96, 4-Amino-1-(2-chloro-benzenesulfonyl)-piperidine-4-carboxylic acid (4-isopropoxy-phenyl)-amide], for which the IC50 worked out at 0.05 µM.

As to `CC(C)c1ccc(NC(=O)C2(N)CCN(C(=O)c3ccc(F)cc3)CC2)cc1` [Example 127, 4-Amino-1-(4-fluoro-benzoyl)-piperidine-4-carboxylic acid (4-isopropyl-phenyl)-amide], the half-maximal inhibitory concentration (IC50) worked out at 0.49 µM.

Regarding `CCCCS(=O)(=O)N1CCC(N)(C(=O)Nc2ccc(CC)cc2)CC1` [Example 143, 4-Amino-1-(butane-1-sulfonyl)-piperidine-4-carboxylic acid (4-ethyl-phenyl)-amide], the concentration for half-maximal inhibition (IC50) is 0.53 µM.

Regarding `Cc1ccc(S(=O)(=O)N2CCC(O)(C(=O)Nc3ccc(C(C)C)cc3)CC2)cc1` [Example 5, 4-Hydroxy-1-(toluene-4-sulfonyl)-piperidine-4-carboxylic acid (4-isopropyl-phenyl)-amide], the IC50 is 0.21 µM.

On to `Cc1ccc(S(=O)(=O)N2CCC(O)(C(=O)N(C)c3ccc(OC(F)(F)F)cc3)CC2)cc1` [Example 69, 4-Hydroxy-1-(toluene-4-sulfonyl)-piperidine-4-carboxylic acid methyl-(4-trifluoromethoxy-phenyl)-amide], for which the IC50 is 0.14 µM.

For the compound `COc1ccc(OC)c(NC(=O)N2CCC(O)(C(=O)Nc3ccc(C(C)(C)C)cc3)CC2)c1` [Example 49, 4-Hydroxy-piperidine-1,4-dicarboxylic acid 4-[(4-tert-butyl-phenyl)-amide] 1-[(2,5-dimethoxy-phenyl)-amide]], the IC50 amounted to 0.66 µM.

For `CCc1ccc(NC(=O)C2(N)CCN(S(=O)(=O)c3ccc(Cl)nc3)CC2)cc1` [Example 148, 4-Amino-1-(6-chloro-pyridine-3-sulfonyl)-piperidine-4-carboxylic acid (4-ethyl-phenyl)-amide], the IC50 is 0.61 µM.

In the case of `Cc1ccc(S(=O)(=O)N2CCC(N)(C(=O)Nc3ccc(OC(C)C)cc3)CC2)cc1` [Example 79, 4-Amino-1-(toluene-4-sulfonyl)-piperidine-4-carboxylic acid (4-isopropoxy-phenyl)-amide; hydrochloride], the IC50 turned out to be 0.13 µM.

Turning to `CCN(C(=O)C1(O)CCN(S(=O)(=O)c2ccccc2C)CC1)c1ccc(OC(F)(F)F)cc1` [Example 74, 4-Hydroxy-1-(toluene-2-sulfonyl)-piperidine-4-carboxylic acid ethyl-(4-trifluoromethoxy-phenyl)-amide], the IC50 turned out to be 0.88 µM.

For the compound `COc1ccc(S(=O)(=O)N2CCC(O)(C(=O)Nc3ccc(C(C)(C)C)cc3)CC2)cc1` [Example 19, 4-Hydroxy-1-(4-methoxy-benzenesulfonyl)-piperidine-4-carboxylic acid (4-tert-butyl-phenyl)-amide], the IC50 was determined as 0.17 µM.

Consider `Cc1ccccc1S(=O)(=O)N1CCC(O)(C(=O)N(C)c2ccc(OC(F)(F)F)cc2)CC1` [Example 68, 4-Hydroxy-1-(toluene-2-sulfonyl)-piperidine-4-carboxylic acid methyl-(4-trifluoromethoxy-phenyl)-amide], for which the IC50 was 0.1 µM.

Consider `CC(C)c1ccc(NC(=O)C2(N)CCN(Cc3ccccc3C(F)(F)F)CC2)cc1` [Example 114, 4-Amino-1-(2-trifluoromethyl-benzyl)-piperidine-4-carboxylic acid (4-isopropyl-phenyl)-amide; hydrochloride], for which the IC50 turned out to be 0.21 µM.

For `CCc1ccc(NC(=O)C2(N)CCN(S(=O)(=O)c3ccccc3S(C)(=O)=O)CC2)cc1` [Example 136, 4-Amino-1-(2-methanesulfonyl-benzenesulfonyl)-piperidine-4-carboxylic acid (4-ethyl-phenyl)-amide], the IC50 is 0.61 µM.

On to `CCc1ccc(NC(=O)C2(N)CCN(S(=O)(=O)c3c(F)cccc3F)CC2)cc1` [Example 142, 4-Amino-1-(2,6-difluoro-benzenesulfonyl)-piperidine-4-carboxylic acid (4-ethyl-phenyl)-amide], for which the IC50 was 0.1 µM.

Turning to `NC1(C(=O)Nc2ccc3c(c2)CCC3)CCN(S(=O)(=O)c2ccccc2Cl)CC1` [Example 99, 4-Amino-1-(2-chloro-benzenesulfonyl)-piperidine-4-carboxylic acid indan-5-ylamide], the IC50 is 0.06 µM.

As to `CC(C)c1ccc(NC(=O)C2(N)CCN(Cc3ccc(C(F)(F)F)cc3)CC2)cc1` [Example 112, 4-Amino-1-(4-trifluoromethyl-benzyl)-piperidine-4-carboxylic acid (4-isopropyl-phenyl)-amide; hydrochloride], the concentration for half-maximal inhibition (IC50) was determined as 0.3 µM.

`CCc1ccc(NC(=O)C2(N)CCN(Cc3ccc(C(C)C)cc3)CC2)cc1` [Example 158, 4-Amino-1-(4-isopropyl-benzyl)-piperidine-4-carboxylic acid (4-ethyl-phenyl)-amide]: the IC50 was 0.46 µM.

`O=C(Nc1ccc(OC(F)(F)F)cc1)C1(O)CCN(Cc2ccccc2Cl)CC1` [Example 63, 1-(2-Chloro-benzyl)-4-hydroxy-piperidine-4-carboxylic acid (4-trifluoromethoxy-phenyl)-amide]: the IC50 turned out to be 0.18 µM.

As for `NC1(C(=O)Nc2ccc(F)cc2)CCN(S(=O)(=O)c2ccccc2Cl)CC1` [Example 94, 4-Amino-1-(2-chloro-benzenesulfonyl)-piperidine-4-carboxylic acid (4-fluoro-phenyl)-amide], the IC50 was found to be 0.78 µM.

Values taken from patent publication US8399676B2, “Piperidine derivatives” (Hoffman-La Roche Inc., priority 2009, dated 2013).
